Like-named read-outs stand apart in the source and are kept apart here.
Columns and labels:
[1] = system: J774.2 macrophages; assay: J774.2 cell viability assay (AlamarBlue); format: cell-based, mouse; conditions: J774.2 macrophages, 10, 100 or 500 μM, 48 h; FIG. 5D-F
Method: To determine the effect of fluorescent BP analogues on cell viability, J774.2 mouse macrophages were plated at 2×10^5 cells/mL in 96-well plates and left to adhere overnight. Cells were then treated with 10, 100 or 500 μM of fluorescent analogues of RIS, dRIS, and ZOL, the respective native BP, or vehicle, for 48 h. At the end of the incubation period, AlamarBlue reagent was added to each well and incubation continued for a further 3 h. Fluorescence was detected on a plate reader, and expressed as percent of vehicle control. Results are shown as mean±SD of ≧2 independent experiments, performed at least in duplicate.

[2] = system: unprenylated Rap1A (uRap1A); assay: Prenylation assay: Western blot for unprenylated Rap1A in J774.2 macrophages; format: cell-based, mouse; conditions: 10 or 100 μM, 24 h, FIG. 5A-C
Method: To determine the effect of fluorescent BP probes on protein prenylation, J774.2 mouse macrophages were plated out at 2×10^5 cells/mL in 24-well plates and left to adhere overnight. Cells were then treated with 10 or 100 μM of fluorescent analogues of RIS, dRIS, and ZOL, the respective native BP, or vehicle, for 24 h. Cells were lysed in radioimmunoprecipitation buffer, and proteins were separated by sodium dodecyl sulfate polyacrylamide gel electrophoresis and transferred to polyvinyl difluoride membranes by western blotting. Membranes were then incubated with antibodies to the unprenylated form of Rap1A (uRap1A) and the housekeeping protein β-actin, which were detected by incubation with fluorescently-labeled secondary antibodies and scanning of membranes on a LI-COR Infrared Imager. Results shown are representative of 2 independent experiments. The ratio between abundance of unprenylated RaplA and β-actin is indicated for each sample below the blots in FIG. 5.

[3] = assumed the same as the corresponding fluorescent dye, cited from earlier work
[4] = UV-VIS absorption and fluorescence emission spectra; format: physicochemical; conditions: 0.1M phosphate buffer (1x PBS for 7d5); ± 1 nm error
[5] = system: bone resorption; conditions: rat model in vivo, ref. [15a]; cited from earlier work
[6] = Hydroxyapatite (HAP) column chromatography binding assay; conditions: pH 6.8, phosphate gradient 1 to 1000 mM; FIG. 3
Method: The fast performance liquid chromatography (FPLC) system consisted of a Waters 650E advanced protein purification system (Millipore Corp., Waters chromatography division, Milford, Mass.), a 600E system controller and a 484 tunable absorbance detector for UV absorbance assessment. Ceramic hydroxyapatite [HAP, […], Macro-Prep® Ceramic Hydroxyapatite Type II 20 μm 100 g, Bio-Rad Laboratories, Inc. Hercules, Calif.] was equilibrated with 1 mM phosphate buffer (pH 6.8) and packed in a 0.66 cm (diameter)×6.5 cm (length) glass column (Omnifit, Bio-chem Valve™ inc., Cambridge, U.K.), which was attached to the Waters 650E advanced protein purification system. Each sample was prepared in 1 mM potassium phosphate buffer, and 100 μL of 1 mM (0.1 μmol) sample was injected into the FPLC system. As a consequence, the compounds were absorbed and subsequently eluted at a flow rate of 2 ml/min by using a linear concentration gradient of phosphate from 1 to 1000 mM at pH 6.8. Fractions of each sample were collected in 80 tubes using an automated fraction collector (Gilson, France) and then used for subsequent ultraviolet (SPECTRAmax PLUS 384, Molecular Devices, CA) or fluorescence spectrometry detection (WALLAC VICTOR™, 1420 MULTILABEL COUNTER, Perkin Elmer, USA). […] The elution profile for each sample was determined in triplicate for statistical analysis (Prism, GraphPad Software, USA). […]

[7] = parent compounds, ref. [23]; cited from earlier work
[8] = RIS; not covered by the MarvinSketch note; cited from earlier work
[9] = pKa and protonation status of the heterocyclic nitrogen; format: physicochemical; conditions: pH 6.0; calculated by Henderson-Hasselbalch equation
Description: The nucleophilicity and Lewis basicity of the nitrogen atom of the three heterocyclic N-BPs studied in this report vary, and these properties appear to be the major determinants of their conjugation reactivity. Thus, the ‘magic linker’ methodology for RIS required modification for ZOL (1d), MIN (1e), and their related analogues (1f). […] The protonation status of the heteroatom at different pH is also critical to the reactivity. […] Under such conditions, more than 50% (˜71.3% calculated) of the nitrogen of RIS will be deprotonated, and able to attack the epoxide ring nucleophilically. However, at pH 6.0, only 18% of the nitrogen of ZOL (22% for MIN) is deprotonated, thus the reactions were very slow (2d) at pH 6.0. At pH 7.0-7.5, reaction was more rapid, but the regioselectivity (N-alkylation vs. O-alkylation) for 1d, 1e, 1f was not as good as for RIS and its analogues (1a, 1b, 1c); 10-20% of side products could be observed, which were confirmed by HPLC, NMR and MS to be the products of N,O(P)-dialkylation (O-alkylation occurs between the phosphonate/carboxylate group of the drug and the epoxide). The reaction rate of MinPC (1f)-epoxide (5) coupling was even slower than ZOL under the same reaction conditions (same reactant ratio, pH 7.5, 40-45° C.), which might be due to a steric effect from the large heterocycle. In addition, the percent of side products was higher and O-alkylation products were also observed in the reaction mixture.
The following publications are incorporated by reference herein in their entirety: • [1] a) R. G. G. Russell, N. B. Watts, F. H. Ebetino, M. J. Rogers, Osteoporos. Int. 2008, 19, 733-759; b) F. Ebetino, A. Hogan, S. Sun, M. Tsoumpra, X. Duan, J. Triffitt, A. Kwaasi, J. Dunford, B. Barnett, U. Oppermann, M. Lundy, A. Boyde, B. Kashemirov, C. McKenna, R. Russell, Bone 2011, 49 20-33. • [2] a) I. Reid, M. Bolland, A. Grey, Bone 2007, 41, 318-320; b) A. Siddiqi, A. Payne, S. Zafar, Oral Surg. Oral Med. Oral Pathol. Oral Radiol. Endod. […]

SMILES	viable cell number [1]	accumulation of unprenylated Rap1A (anti-prenylation activity) [2]	Extinction coefficient ([3]; pH 7.0, 0.1M phosphate buffer)	Maximum absorption wavelength (λmax (abs), nm) [4] [nm]	Maximum emission wavelength (λmax (em), nm) [4] [nm]	Extinction coefficient ([3]; pH 7.2, 0.1M phosphate buffer)	Anti-resorptive activity [5]	HAP binding affinity (retention time on HAP column, normalized to RIS) [6]	rank order of mineral binding affinity [7]	pKa of the heterocyclic nitrogen [8]	fraction of the heterocyclic nitrogen deprotonated [9] [%]
CC1(C)C(/C=C/C2=C(Oc3ccc(S(=O)(=O)O)cc3)C(=C/C=C3/N(CCCCS(=O)(=O)[O-])c4ccc(S(=O)(=O)[O-])cc4C3(C)C)/CCC2)=[N+](CCCCCC(=O)NCC(O)C[n+]2ccn(CC(O)(P(=O)(O)O)P(=O)(O)O)c2)c2ccc(S(=O)(=O)O)cc21 (stereo not shown) [Compound 800CW-ZOL, (E)-2-((E)-2-(3-((E)-2-(1-(6-((2-hydroxy-3-(1-(2-hydroxy-2,2-diphosphonoethyl)-1H-imidazol-3-ium-3-yl)propyl)amino)-6-oxohexyl)-3,3-dimethyl-5-sulfo-3H-indol-1-ium-2-yl)vinyl)-2-(4-sulfophenoxy)cyclohex-2-en-1-ylidene)ethylidene)-3,3-dimethyl-1-(4-sulfonatobutyl)indoline-5-sulfonate]	modest decreases in viable cell number at high concentrations	did not show accumulation of unprenylated Rap1A	240,000 (pH 7.0) M^−1cm^−1	774	789						
O=C(NCC(O)C[n+]1ccn(CC(O)(P(=O)(O)O)P(=O)(O)O)c1)c1ccc(-c2c3ccc(=O)cc-3oc3cc(O)ccc23)c(C(=O)O)c1 (stereo not shown) [Compound 5-FAM-ZOL, 3-(3-(3-carboxy-4-(6-hydroxy-3-oxo-3H-xanthen-9-yl)benzamido)-2-hydroxypropyl)-1-(2-hydroxy-2,2-diphosphonoethyl)-1H-imidazol-3-ium]		retain some activity, although their potencies are weaker than native ZOL		493	521	73,000 (pH 7.2) M^−1cm^−1	demonstrated				
CC1(C)C(C=CC=CC=C2N(CCCS(=O)(=O)O)c3ccc(S(=O)(=O)O)cc3C2(C)CCCCCC(=O)NCC(O)C[n+]2cccc(CC(O)(P(=O)(O)O)P(=O)(O)O)c2)=[N+](CCCS(=O)(=O)O)c2ccc(S(=O)(=O)O)cc21 (stereo not shown) [AF647-RIS, 2-(5-(3-(6-((2-hydroxy-3-(3-(2-hydroxy-2,2-diphosphonoethyl)pyridin-1-ium-1-yl)propyl)amino)-6-oxohexyl)-3-methyl-5-sulfo-1-(3-sulfopropyl)indolin-2-ylidene)penta-1,3-dien-1-yl)-3,3-dimethyl-5-sulfo-1-(3-sulfopropyl)-3H-indol-1-ium]	modest decreases in viable cell number at high concentrations	did not show accumulation of unprenylated Rap1A	240,000 (pH 7.0) M^−1cm^−1	648	666			largest relative decrease of HAP affinity compared to other fluorescent RIS conjugates, but still retains strong absolute binding affinity			
O=P(O)(O)C(O)(Cc1cccnc1)P(=O)(O)O [RIS, (1-hydroxy-2-pyridin-3-ylethane-1,1-diyl)bis(phosphonic acid)]									RIS>dRIS>RISPC	5.67	~71.3

— patent US20180064829A1, “FLUORESCENT BISPHOSPHONATE ANALOGS” (University of Southern California, priority 2015, published 2018)
